Measurements published in patent US20200282010A1, “IMMUNOGENIC COMPOSITIONS AND USES THEREFOR” (Epiaxis Therapeutics Pty Ltd, priority 2017, published 2020).

Legend:
MCF7 cells = assay: Cell proliferation (WST-1 assay); assay type: cell-based; details: FIG. 1E
From the text: FIG. 1 is a graphical, schematic and photographic representation showing that PKC-θ can be targeted for therapeutic intervention. A) Depicts the strength of binding of recombinant purified His6-PKC-θ to increasing concentrations of different subunits and subunit combinations (α2, α2β1, and β1) of the importin α/β heterodimer nuclear transport receptor using an AlphaScreen® binding assay as described in Wagstaff et al. (2011. Journal of Biomolecular Screening 16 (2):192-200). B-C) Depicts protein structure of PKC-θ indicating binding locations for the PKC-θ peptide inhibitor, PKCθi (RKEIDPPFRPKVK), including the nuclear localization sequence (NLS) of PKC-θ. D) The specificity of PKCθi was examined on cells treated with this peptide inhibitor. Cells were screened with primary antibodies to PKC-θ (T538p), PKC-β2, PKC-β1, PKC-α, PKC-ε and PKC-γ. The nuclear to cytoplasmic fluorescence ratio (Fn/c) using the equation: Fn/c=(Fn−Fb)/(Fc−Fb), where Fn is nuclear fluorescence, Fc is cytoplasmic fluorescence, and Fb is background fluorescence was used to determine the impact on nuclear translocation/localization. […] EC^50 of inhibitors calculated using GraphPad PRISM software. F) The PKC-θ kinase activity was measured using the PKC kinase activity kit from ENZO life sciences and recombinant PKC-θ; C27 is an inhibitor of PKC-θ kinase activity, which is disclosed in Jimenez et al. (2013. […]

[1] = system: CD8^+ T-cells isolated from melanoma patient's bloods; assay: Immunofluorescence of IFN-γ and TNF-α in patient CD8+ T-cells; assay type: cell-based, human; details: across all samples, particularly the stimulated samples; inhibitor 8 μm; FIG. 3
Experimental: FIG. 3 is a photographic representation depicting a PKC-θ resistance signature in CD8^+ T-cells. A-B) CD8s were isolated from melanoma patient liquid biopsies (CR=complete response, SD=Stable Disease, PD=progression of disease) and were stimulated with PMA/CI and pre-clinically screened with either vehicle control or PKCθi nuclear peptide inhibitor. Samples were fixed and immunofluorescence microscopy was performed on these cells with primary antibodies for ZEB1, PKC-θ, and CD8. Representative images for each dataset are shown. Graph represents the TNFI for PKC-Theta and TNFI for ZEB1 measured using ImageJ to select the nucleus minus background (n=>20 cells/sample). […] Graph represents the TNFI for TNF-α and TNFI for IFN-γ measured using ImageJ to select the nucleus minus background (n=>20 cells/sample). […]
Metastatic melanoma biopsies were pre-enriched using the RosetteSep™ method to isolate CTCs by employing the RosetteSep™ Human CD45 Depletion Kit (15162, Stemcell Technologies) to remove CD45+ cells and red blood cells, using density gradient centrifugation with SepMate™-50 (IVD) density gradient tubes (85450, Stemcell Technologies) and Lymphoprep™ density gradient medium (07861, Stemcell Technologies). […] Digital images were analysed using ImageJ software (ImageJ, NIH, Bethesda, Md., USA) to determine TNFI, TCFI or TFI. […]

With RKEIDPPFRPKVK [PKCθi] as the sequence, how does the “proliferation of MCF7 cells” value (MCF7 cells) read?
The value was “significantly inhibit”.

And the “expression of IFN-γ” value [1]?
Its value is “significant increase”.

What about the “expression of TNF-α” value [1] of the same sequence?
Its value is “significant increase”.
